In US10493118B2, “Triterpenoid obtainable from hedera helix for treatment of neurodegenerative diseases” (Macau University of Science and Technology, priority 2016, dated 2019):

Columns and labels:
[1] = test system: α-synuclein oligomerization; assay: Bimolecular fluorescence complementation (BiFC) assay of α-synuclein oligomerization in HeLa cells; type: cell-based; settings: for oligomerization of α-syn (GFP fluorescence intensity): transfected HeLa cells, hederagenin 40 or 80 μM, α-hederin 12 or 24 μM, 24 h
Method: Bimolecular Fluorescence Complementation (BiFC) Assay: Both (1) non-fluorescent GFP-N terminal (GFP-N-α-syn), or (2) non-fluorescent GFP-C terminal (GFP-C-α-syn) plasmids were generous gifts from Pamela J. McLean (Department of Neuroscience, Mayo Clinic Florida, Jacksonville, Fla., USA). HeLa cells transfected with both GFP-N-α-syn and GFP-C-α-syn plasmids were incubated at 37° C. for 4 h. Cells were then subjected to different concentration of hederagenin or α-hederin treatments for a further 24 h in a humidified incubator at […] (Outeiro, T. F. et al., PLoS One 2008, 3:e1867). Green fluorescent signal which indicates the reconstitution of complete GFP proteins was detected by flow analysis (BD FACSAria III, San Jose, Calif., USA).

[2] = test system: EGFP-HTT 74 (mutant huntingtin); assay: Mutant huntingtin (EGFP-HTT 74) clearance in transfected PC-12 cells, Western blot; type: cell-based; settings: EGFP-HTT 74 transfected PC-12 cells; hederagenin 40-80 μM, α-hederin 12-24 μM
Description: Protein extraction and Western blots: Cells were harvested by RIPA lysis buffer (Cell Signaling Technologies, Beverly, Mass., USA), and with the final protein concentrations measured by using Bradford reagent (Bio-Rad, Hercules, Calif., USA). After electrophoresis for protein band separation, proteins were transferred to the nitrocellulose membrane which was blocked with 5% non-fat dried milk immediately after protein transfer. Corresponding primary antibodies, followed by the addition of HRP-conjugated secondary antibodies, were incubated with the protein membrane with constant shaking. […] Band intensities were quantified by using the software, ImageJ (ImageJ 1.46r; National Institutes of Health, Bethesda, Md., USA).
Cells were then treated with either hederagenin or α-hederin for a further 24 h to determine the protein level of mutant huntingtin by Western blot analysis using an antibody against GFP (Ravikumar, B. et al., Nat Genet 2004, 36:585-595). On the other hand, ATG7 wild-type and ATG7-deficient MEF cells transfected with EGFP-HTT 74 were analyzed for the formation of huntingtin inclusion after 24 h of hederagenin or α-hederin treatment. Percentages of cells with cytoplasmic GFP-huntingtin (GFP-HTT74) inclusion formation were counted by the number of cells with GFP inclusions over the total number of GFP-positive cells in the same field under fluorescent microscopic analysis. […]

[3] = UHPLC/MS/MS measurement of hederagenin and α-hederin level in mice brain tissues; type: in vivo
Method: Whole mice brains were collected and weighted after sacrificed. Each brain tissue was put into 500 μl of NaCl solution and ultra-sonicated for 40 s to give the whole tissue homogenate. Each tube of homogenate was set to a final volume of 800 μl. […] The supernatant was collected and remaining precipitate was re-extracted with 200 μl of methanol. The collected supernatant was then combined and dried by using dry nitrogen blowing instrument. The residue was reconstituted with 200 μl of 30% acetonitrile, and then 10 μl of the aliquot was injected into the LC-MS/MS system (Su, F. L. et al., Chromatographia 2009, 69:207-213). […] The measurement of dopamine (DA), hederagenin and α-hederin level in mice brain tissues: Internal standard (IS, DHBA), DA, hederagenin and α-hederin level in the mouse brain, were quantified using UHPLC/MS/MS system which includes Agilent 1290 Infinity UHPLC, and Agilent 6460 Triple Quadrupole, equipped with an electrospray ionization interface used to generate positive ions for the determination of DA; negative ion mode for the measurement of hederagenin and α-hederin in mouse brains. The compounds in plasma samples were analyzed by using the Agilent Zorbax Eclipse Plus C-18 column with a particle size of 1.8 μm (flow rate: 0.35 mL/min). […] Data were analyzed by using Agilent MassHunter Workstation software B.01.03. […]

[4] = test system: myc-tagged-A53T-α-syn; type: cell-based; settings: PC-12 cells after 1 μg/ml Dox induction; hederagenin 40 or 60 μM, α-hederin 12 or 24 μM
Description: (§1) Protein extraction and Western blots: Cells were harvested by RIPA lysis buffer (Cell Signaling Technologies, Beverly, Mass., USA), and with the final protein concentrations measured by using Bradford reagent (Bio-Rad, Hercules, Calif., USA). After electrophoresis for protein band separation, proteins were transferred to the nitrocellulose membrane which was blocked with 5% non-fat dried milk immediately after protein transfer. Corresponding primary antibodies, followed by the addition of HRP-conjugated secondary antibodies, were incubated with the protein membrane with constant shaking. Visualization of protein band pattern was performed by using the ECL Western Blotting Detection Reagents (Invitrogen, Paisley, Scotland). Band intensities were quantified by using the software, ImageJ (ImageJ 1.46r; National Institutes of Health, Bethesda, Md., USA).

[5] = test system: GFP-LC3 transfected PC-12 cells; assay: GFP-LC3 autophagic puncta formation by fluorescence microscopy; type: cell-based; settings: for percentage of cells with GFP-LC3 puncta formation with addition of 3-MA: 60 μM hederagenin or 18 μM α-hederin with 5 mM 3-MA for 24 h; for formation of GFP-LC3 puncta with AMPK inhibitor compound C (CC): 60 μM hederagenin or 18 μM α-hederin with 5 mM CC for 24 h; for formation of fluorescent LC3 II puncta: PC-12 cells, hederagenin 20-80 μM, α-hederin 6-24 μM, 4-24 h
Method: Firstly, cells were plated on top of coverslips inside a 6-well culture dish. After compound treatment, cells were fixed with 4% paraformaldehyde for 20 min. FluorSave™ mounting media (Calbiochem, San Diego, Calif., USA) was used to mount the coverslips with cells before subjected to fluorescence microscopic analysis. The number of GFP-positive cells, and cells with GFP-LC3 puncta formation were examined and counted under the Nikon ECLIPSE 80i microscope by using 40× of magnification. In order to standardize the quantitation, the percentage of cells with autophagy induction was defined by counting the number of cells with increased punctate GFP-LC3 fluorescence in GFP-positive cells. A minimum of 1000 GFP-positive cells from 3 randomly selected fields were scored.
Firstly, cells were plated on top of coverslips inside a 6-well culture dish. After compounds treatments, cells were fixed with 4% paraformaldehyde for 20 min. FluorSave™ mounting media (Calbiochem, San Diego, Calif., USA) was used to mount the coverslips with cells before subjected to fluorescence microscopic analysis. The number of GFP-positive cells, and cells with GFP-LC3 puncta formation was examined and counted under the Nikon ECLIPSE 80i microscope by using 40× of magnification. In order to standardize the quantitation, the percentage of cells with autophagy induction was defined by counting the number of cells with punctate GFP-LC3 fluorescence in GFP-positive cells. A minimum of 1000 GFP-positive cells from 3 randomly selected fields were scored.

[6] = test system: p-AMPK; assay: Western blot of AMPK phosphorylation; type: cell-based; settings: hederagenin 0-80 μM, α-hederin 0-24 μM, 24 h
Description: as §1

[7] = test system: EGFP-HTT 74 (mutant huntingtin); assay: Mutant huntingtin (EGFP-HTT 74) clearance and inclusion formation in ATG7+/+ and ATG7−/− MEFs; type: cell-based, mouse; settings: 24 h; for percentage of cells with fluorescence mutant huntingtin inclusion formation: ATG7−/− compared with ATG7+/+ MEFs after treatment; for inclusion clearance of overexpressed mutant huntingtin in ATG7+/+ MEFs: EGFP-HTT 74 transfected ATG7+/+ MEFs
Description: as §1
Cells were then treated with either hederagenin or α-hederin for a further 24 h to determine the protein level of mutant huntingtin by Western blot analysis using an antibody against GFP (Ravikumar, B. et al., Nat Genet 2004, 36:585-595). On the other hand, ATG7 wild-type and ATG7-deficient MEF cells transfected with EGFP-HTT 74 were analyzed for the formation of huntingtin inclusion after 24 h of hederagenin or α-hederin treatment. Percentages of cells with cytoplasmic GFP-huntingtin (GFP-HTT74) inclusion formation were counted by the number of cells with GFP inclusions over the total number of GFP-positive cells in the same field under fluorescent microscopic analysis. More than 200 GFP-positive cells were scored for each treatment.

With `CC1(C)CC[C@]2(C(=O)O)CC[C@]3(C)C(=CC[C@@H]4[C@@]5(C)CC[C@H](O)[C@@](C)(CO)[C@@H]5CC[C@]43C)[C@@H]2C1` [hederagenin] the “inhibition of α-syn oligomerization relative to α-hederin” value ([1]; BiFC assay, HeLa cells) was “more potent in the inhibition”, the “oligomerization of α-syn (GFP fluorescence intensity)” value [1] was “inhibit the oligomerization of α-syn” and the “clearance of overexpressed huntingtin in PC-12 cells” value [2] was “facilitate the clearance of overexpressed huntingtin”. For the same compound, the “level detected in the brain tissue” value ([3]; C57BL/6, mouse, in vivo, po, 80 mg/kg) was 3.39 nM, the “clearance of overexpressed mutant A53T α-syn” value [4] was “facilitate the clearance of the overexpressed mutant α-” and the “percentage of cells with GFP-LC3 puncta formation with addition of 3-MA” value [5] was “decreases the rate of autophagy”. For the same compound, the “formation of GFP-LC3 puncta with AMPK inhibitor compound C (CC)” value [5] was “significant reduction”, the “formation of fluorescent LC3 II puncta” value [5] was “increased formation of fluorescent LC3 II puncta” and the “phosphorylation of AMPK” value [6] was “increased phosphorylation of AMPK”. The “percentage of cells with fluorescence mutant huntingtin inclusion formation” value [7] was “higher percentage of cells with fluorescence mutant huntingtin inclusion formation was found in ATG−/− MEFs” and the “inclusion clearance of overexpressed mutant huntingtin in ATG7+/+ MEFs” value [7] was “facilitate the inclusion clearance of overexpressed mutant huntingtin”.

In the case of `C[C@@H]1O[C@@H](O[C@H]2[C@H](O[C@H]3CC[C@@]4(C)[C@@H](CC[C@]5(C)[C@@H]4CC=C4[C@@H]6CC(C)(C)CC[C@]6(C(=O)O)CC[C@]45C)[C@]3(C)CO)OC[C@H](O)[C@@H]2O)[C@H](O)[C@H](O)[C@H]1O` [α-hederin], the “oligomerization of α-syn (GFP fluorescence intensity)” value [1] is reported as “inhibit the oligomerization of α-syn”, the “clearance of overexpressed huntingtin in PC-12 cells” value [2] is reported as “facilitate the clearance of overexpressed huntingtin” and the “level detected in the brain tissue” value ([3]; mice with 80 mg/kg HH-EF′ treatment, oral) is reported as 2.98 nM. The “clearance of overexpressed mutant A53T α-syn” value [4] was “facilitate the clearance of the overexpressed mutant α-”, the “percentage of cells with GFP-LC3 puncta formation with addition of 3-MA” value [5] was “decreases the rate of autophagy” and the “formation of GFP-LC3 puncta with AMPK inhibitor compound C (CC)” value [5] was “significant reduction”. The “formation of fluorescent LC3 II puncta” value [5] was “increased formation of fluorescent LC3 II puncta”, the “phosphorylation of AMPK” value [6] was “increased phosphorylation of AMPK” and the “percentage of cells with fluorescence mutant huntingtin inclusion formation” value [7] was “higher percentage of cells with fluorescence mutant huntingtin inclusion formation was found in ATG−/− MEFs”. The “inclusion clearance of overexpressed mutant huntingtin in ATG7+/+ MEFs” value [7] was “facilitate the inclusion clearance of overexpressed mutant huntingtin”.
